Laboratory results as given in patent publication US11000542B2, “Treatment and prevention of the common cold using povidone-iodine” (FIREBRICK PHARMA LIMITED, priority 2014, dated 2021).

Tests used:
[1] = tested on: colds due to picornaviruses; conditions: cited from earlier work
nasal cilia = conditions: Kramer et al (2002), cited from earlier work
[2] = Intranasal tolerability of aqueous PVP-I preparations (inventors' finding); type: in vivo, human; conditions: repeated, frequent use
Description: With respect to the intranasal tolerability of PVP-I, as distinct from ciliotoxicity, the present inventors have discovered that when the concentration of PVP-I in aqueous preparations is greater than 1.0%, the preparation may be irritating to the nasal mucosa in some individuals and not suitable for repeated, frequent and general use, as would be required in the effective treatment or prevention of the common cold. On this consideration, a preferred composition for nasal use is a concentration of PVP-I at or below 1.0%.

[3] = typical; cited from earlier work
human rhinovirus (HRV) = conditions: cited from earlier work
[4] = tested on: herpes simplex virus (HSV); conditions: Wutzler et al (2002); cited from earlier work
adenovirus = conditions: Reimer et al (2002), Wutzler et al (2002); cited from earlier work
common cold = conditions: throat gargle; cited from earlier work
monocytes = conditions: Van den Broek et al (1982); cited from earlier work
human influenza virus = conditions: very low concentrations; Reimer et al (2002); cited from earlier work
granulocytes = conditions: Van den Broek et al (1982); cited from earlier work

## Cc1cc(CCCOc2c(C)cc(-c3noc(C(F)(F)F)n3)cc2C)on1 [pleconaril]
[1]; FDA Advisory Committee review of 2002 NDA
  cytochrome P450 induction: a risk of cytochrome P450 induction
[1]; Phase III data
  reduction in cold duration: one
[1]; phase three study, Hayden et al (2003)
  Time to Alleviation of Illness (TAI), cold duration: 6.3 days

## povidone-iodine [PVP-I]
Nasal cilia; Reimer et al (2002): complete loss of ciliary function
  PVP-I concentration toxic to the nasal cilia (ciliotoxic): ≥ 2.5%
Nasal cilia; Reimer et al (2002)
  PVP-I concentration not ciliotoxic / suitable for use in the nose: ≤ 1.25%
[2]
  PVP-I concentration in aqueous preparations that may be irritating to the nasal mucosa in some individuals: greater than 1.0%
[3]
  free iodine in PVP-I solutions: less than 30 ppm
Human rhinovirus (HRV); 30 second exposure, Wutzler et al (2002)
  log reduction in HRV: 1.1 log
Human rhinovirus (HRV); 30 seconds exposure, any concentration, Reimer et al (2002)
  reduction in viable virus count: ~1 log
Human rhinovirus (HRV); in vitro, Reimer et al (2002), Wutzler et al (2002)
  exposure required for a 4 log reduction (microbicidal effect): 30 minutes
Human rhinovirus (HRV); maximum exposure period tested 10 minutes, Kawana et al (1997)
  microbicidal effect against HRV: failed to produce a microbicidal effect against HRV
[4]
  exposure for a microbicidal effect (4 log reduction): 30 seconds
adenovirus
  exposure required for a 4 log reduction (microbicidal effect): 5 minutes
Common cold
  effect of gargling on cold symptoms and incidence: no significant effect on nasal cold symptoms or bronchial complications, and no benefit in terms of reducing the incidence of the common cold
monocytes
  PVP-I concentration substantially degrading monocytes: above 0.1%
Human influenza virus
  exposure for a 4 log10 reduction in viable virus count: ≤ 30 second
granulocytes
  PVP-I concentration at which virtually all granulocytes destroyed: above 0.1%
  PVP-I concentration significantly reducing the viability of granulocytes: above 0.05%
